Like-named read-outs stand apart in the source and are kept apart here.
Experiments:
[1] = tested on: maximal electroshock seizure; experiment: Maximal electroshock seizure (MES) test on mice; type: in vivo; details: 100 mg/kg intragastric
Source text: The Maximal Electroshock Seizure Test on Mice
MES (maximal electroshock seizure test) was used to evaluate whether the compounds have an effect against […] and thus to make preliminary evaluation of the efficacy of each compound in treating epilepsy. Multipurpose instrument for pharmacological and biological experiments (mode, YSD-4G) was used to conduct experiments under the condition of convulsive mode, 115V of stimulation voltage, 250 ms of stimulation time, 50 HZ AC voltage. Positive and negative electrodes were used to clamp the left and right ear of the mice, respectively, which were wetted by normal saline. The tonic hind limb extension seizure after stimulation was deemed as judgment standard of grand mal. The mice were randomly divided into groups. The compounds were given by intragastric administration based on the dose of 100 mg/kg.

[2] = tested on: maximal electroshock seizure; details: literature value, cited from earlier work
[3] = Influence on rats' serum total cholesterol and triglyceride; type: in vivo, SD rats; design: total cholesterol / triglyceride: unit not given here; details: for total cholesterol / triglyceride: rats' serum, 5 weeks after administration
Protocol: Study on the Influence of the Compounds on the Rats' Total Cholesterol and Triglyceride
50 male SD rats with weight of 180˜200 g were randomly divided into groups with 8 in each group. […] 5 weeks after administration, the level of total cholesterol and triglyceride in rats' serum were determined and the results were shown in table 2.

[4] = target: T1, Human carbonic anhydrase II (CA-II) (Homo sapiens, UniProt P00918); experiment: Inhibiting effect on carbonic anhydrase (CO2 hydration, bromothymol blue colour change); type: biochemical
T1 construct: purchased Sigma
Protocol: Preparation Method of the Reagent
Chromogenic Buffer Solution:
HEPES was dissolved in distilled water to prepare a solution with a concentration of 10 mM; the pH was adjusted to 7.7 with 1 M Tris at 23° C.; bromothymol blue was dissolved in HEPES buffer solution with pH 7.7 to a concentration of 50 mg/L;
Saturated CO2-ice water was prepared by adding dry ice into icy distilled water.
Solution of CA-II enzyme was prepared into a concentration of 2 m/ml, and stored at −20° C.
Tested sample was prepared by using distilled water as solvent with various concentrations.
The time required for changing into yellow was recorded. The time required for the blank tube was recorded as t0, the time required for the standard tube was recorded as ts and the time required for the test tube was recorded as t. (t0−ts)/ts was normal activity of enzyme, and (t0−t)/t was the activity after affecting by the test compound.

Compound | Inhibition rate of epileptic seizure ([1]; 0.5 h after administration) [%] | Inhibition rate of epileptic seizure ([1]; 1.5 h after administration) [%] | Inhibition rate of epileptic seizure ([1]; 2 h after administration) [%] | also measured
NS(=O)(=O)Cc1noc2ccccc12 [Zonisamide, reference compound] | 33.3 | 16.7 | 16.7 | 
CN(C)S(=O)(=O)NCc1noc2ccccc12 [Example 9, N-[(benzo[d]isoxazol-3-yl)methyl]-N′,N′-dimethyl-sulfamide] | 44.4 |  | 11.1 | 
NS(=O)(=O)NCc1csc2ccccc12 [JNJ-26990990] |  |  |  | Inhibition rate of epileptic seizure ([2]; 0.5 h): 20%; Inhibition rate of epileptic seizure ([2]; 2 h): 60%
NS(=O)(=O)NCc1noc2cc(F)ccc12 [Example 2, N-[(6-fluoro-benzo[d]isoxazol-3-yl)methyl]-sulfamide] |  |  | 33.3 | 
NS(=O)(=O)NCc1noc2cc(Cl)ccc12 [Example 1, N-[(6-chloro-benzo[d]isoxazol-3-yl)methyl]-sulfamide] | 66.7 |  | 50 | 
NS(=O)(=O)NCc1ccsc1Cl [Example 13, N-[(2-chloro-3-thienyl)methyl]-sulfamide] | 37.5 |  |  | 
CC1(C)O[C@@H]2[C@@H](CO[C@@]3(COS(N)(=O)=O)OC(C)(C)O[C@@H]23)O1 [Topiramate, reference compound] | 37.5 | 37.5 |  | total cholesterol ([3]; 40 mg/kg intragastric): 1.56 ± 0.19; triglyceride ([3]; 40 mg/kg intragastric): 1.45 ± 0.34
NS(=O)(=O)NCc1noc2ccccc12 [Example 3, N-[(benzo[d]isoxazol-3-yl)methyl]-sulfamide] | 88.9 | 66.7 | 77.8 | total cholesterol ([3]; 20 mg/kg intragastric): 1.64 ± 0.28; triglyceride ([3]; 20 mg/kg intragastric): 1.13 ± 0.24; total cholesterol ([3]; 40 mg/kg intragastric): 1.53 ± 0.17; triglyceride ([3]; 40 mg/kg intragastric): 0.99 ± 0.16; total cholesterol ([3]; 80 mg/kg intragastric): 1.32 ± 0.21; triglyceride ([3]; 80 mg/kg intragastric): 0.84 ± 0.06; effect on the level of total cholesterol and triglyceride (in words) ([3]; rats' serum, 20, 40, 80 mg/kg, 5 weeks): significantly decrease; IC50 [4]: 154 µM; inhibiting effect on carbonic anhydrase compared with reference drugs (in words) [4]: poorer inhibiting effect than topiramate and zonisamide

Reference: patent publication US10093679B2, “Amino sulfonyl-based compounds, the preparation method therefor and use thereof” (SUZHOU VIGONVITA LIFE SCIENCES CO., LTD., priority 2014, dated 2018)
